Test results as given in ChEMBL document CHEMBL5620381, “Design, synthesis and antitubercular activity of novel N-(amino)piperazinyl benzothiazinones with improved safety” (Eur J Med Chem, 2023).
≈ marks a conversion by molar mass, not a printed value.

What was measured:
[1] = Cytotoxicity against human THP-1 cells incubated for 48 hrs by MTS/PMS assay; assay type: toxicity, cell-based
[2] = test system: Mycobacterium tuberculosis; assay: Antitubercular activity against Mycobacterium tuberculosis H37Rv […] incubated for 8 days by MABA; assay type: functional; conditions: 192 h, time 8 day
[3] = Selectivity index, ratio of CC50 for human THP-1 cells to MIC for Mycobacterium tuberculosis H37Rv […]; assay type: toxicity; conditions: read-out: Selectivity Index
hERG (KCNH2) = hERG (KCNH2) (Homo sapiens, UniProt Q12809); assay: Inhibition of human ERG expressed in HEK293 cells at 10 uM by whole cell patch clamp assay relative to control; assay type: toxicity, cell-based; conditions: HEK293 cells expressing human ERG
[4] = Toxicity in ICR mouse assessed as increase in body weight at 500 mg/kg, po administered as single dose and measured for 7 days; assay type: organism-based; conditions: in vivo, 168 h, time 7 day
[5] = Tmax in ICR mouse at 25 mg/kg, po measured upto 24 hrs by HPLC analysis; assay type: ADME, organism-based; conditions: in vivo
[6] = Cmax in ICR mouse at 25 mg/kg, po measured upto 24 hrs by HPLC analysis; assay type: ADME, organism-based; conditions: in vivo
[7] = Toxicity in po dosed ICR mouse administered as single dose and measured for 7 days; assay type: organism-based; conditions: in vivo, time 7 day
[8] = Mean residence time in ICR mouse at 25 mg/kg, po measured upto 24 hrs by HPLC analysis; assay type: ADME, organism-based; conditions: in vivo
[9] = AUC(0 to infinity) in ICR mouse at 25 mg/kg, po measured upto 24 hrs by HPLC analysis; assay type: ADME, organism-based; conditions: in vivo
[10] = Half-life in ICR mouse at 25 mg/kg, po measured upto 24 hrs by HPLC analysis; assay type: ADME, organism-based; conditions: in vivo
[11] = Toxicity in ICR mouse assessed as animal death at 500 mg/kg, po administered as single dose and measured for 7 days; assay type: organism-based; conditions: in vivo, 168 h, time 7 day
[12] = Toxicity in ICR mouse assessed as depression at 500 mg/kg, po administered as single dose and measured after 3 to 7 days; assay type: organism-based; conditions: in vivo, time 3-7 day
[13] = Toxicity in ICR mouse assessed as depression at 500 mg/kg, po administered as single dose and measured on next day; assay type: organism-based; conditions: in vivo, 24 h, time 1 day

Chain of hERG (KCNH2) (Q12809 whole entry): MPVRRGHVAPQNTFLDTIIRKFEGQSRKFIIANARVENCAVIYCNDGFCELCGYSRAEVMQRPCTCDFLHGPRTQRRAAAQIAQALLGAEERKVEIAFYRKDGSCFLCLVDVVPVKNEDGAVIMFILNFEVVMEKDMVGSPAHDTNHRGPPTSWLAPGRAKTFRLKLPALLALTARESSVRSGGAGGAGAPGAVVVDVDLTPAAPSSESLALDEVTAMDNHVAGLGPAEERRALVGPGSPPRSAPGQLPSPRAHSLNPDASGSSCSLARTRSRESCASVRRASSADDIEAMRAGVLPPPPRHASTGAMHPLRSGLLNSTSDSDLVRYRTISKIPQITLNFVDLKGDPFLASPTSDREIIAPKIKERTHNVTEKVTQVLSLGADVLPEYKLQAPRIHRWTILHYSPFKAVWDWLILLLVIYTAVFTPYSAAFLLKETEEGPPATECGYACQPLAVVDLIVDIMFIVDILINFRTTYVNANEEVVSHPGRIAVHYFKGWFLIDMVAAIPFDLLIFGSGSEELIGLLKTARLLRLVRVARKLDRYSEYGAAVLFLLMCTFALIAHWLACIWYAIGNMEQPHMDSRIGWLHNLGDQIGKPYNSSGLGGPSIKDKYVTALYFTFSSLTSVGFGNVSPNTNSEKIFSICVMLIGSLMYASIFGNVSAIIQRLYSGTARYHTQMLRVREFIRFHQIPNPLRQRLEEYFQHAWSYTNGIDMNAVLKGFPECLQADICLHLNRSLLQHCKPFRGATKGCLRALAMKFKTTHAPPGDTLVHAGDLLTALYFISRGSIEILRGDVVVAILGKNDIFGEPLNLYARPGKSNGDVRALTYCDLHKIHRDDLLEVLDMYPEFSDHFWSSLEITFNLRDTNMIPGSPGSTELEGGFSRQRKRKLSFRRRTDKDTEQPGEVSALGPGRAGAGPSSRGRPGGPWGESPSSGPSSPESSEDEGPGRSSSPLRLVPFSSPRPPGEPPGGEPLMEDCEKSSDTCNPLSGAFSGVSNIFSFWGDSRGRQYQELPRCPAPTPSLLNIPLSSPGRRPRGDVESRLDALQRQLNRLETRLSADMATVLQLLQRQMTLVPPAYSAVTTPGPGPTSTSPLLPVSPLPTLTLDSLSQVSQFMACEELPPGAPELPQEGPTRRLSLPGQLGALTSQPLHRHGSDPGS

SMILES | CC50 at 48 h [1] [µg/mL] | MIC [2] [ng/mL] | selectivity ratio [3] | inhibition at 10 µM (hERG (KCNH2)) [%] | also measured
CC1CC(N(C)N2CCN(c3nc(=O)c4cc(C(F)(F)F)cc([N+](=O)[O-])c4s3)CC2)CC(C)(C)C1 (centres undefined) | > 64 | < 1 | > 4200 | – | –
O=c1nc(N2CCN(NC3CCCCCCC3)CC2)sc2c([N+](=O)[O-])cc(C(F)(F)F)cc12 | 46.9 (≈ 96.7 µM) | < 1 | > 4200 | – | –
CN(C1CCC(=NOC(C)(C)C)CC1)N1CCN(c2nc(=O)c3cc(C(F)(F)F)cc([N+](=O)[O-])c3s2)CC1 (centres undefined) | > 64 | 7.21 (≈ 0.013 µM) | > 4200 | – | –
CC1CCC(N(C)N2CCN(c3nc(=O)c4cc(C(F)(F)F)cc([N+](=O)[O-])c4s3)CC2)CC1 (centres undefined) | > 64 | < 1 | > 4200 | 32.7 | –
CON=C1CCC(N(C)N2CCN(c3nc(=O)c4cc(C(F)(F)F)cc([N+](=O)[O-])c4s3)CC2C)CC1 (centres undefined) | 12.3 (≈ 23.3 µM) | 14.3 (≈ 0.0271 µM) | > 4200 | 23.1 | –
CN(C1CCCCC1)N1CCN(c2nc(=O)c3cc(C(F)(F)F)cc([N+](=O)[O-])c3s2)CC1 | > 64 | < 1 | > 4200 | 27.3 | –
CC1CN(c2nc(=O)c3cc(C(F)(F)F)cc([N+](=O)[O-])c3s2)CCN1N(C)C1CCCCC1 (centres undefined) | > 64 | < 1 | > 4200 | – | –
CN(C1CCCCCCC1)N1CCN(c2nc(=O)c3cc(C(F)(F)F)cc([N+](=O)[O-])c3s2)CC1 | > 64 | < 1 | > 4200 | – | –
CON=C1CCC(N(C)N2CCN(c3nc(=O)c4cc(C(F)(F)F)cc([N+](=O)[O-])c4s3)CC2)CC1 (centres undefined) | > 64 | < 1 | > 4200 | – | –
O=c1nc(N2CCN(NC3CCCCC3)CC2)sc2c([N+](=O)[O-])cc(C(F)(F)F)cc12 | > 64 | < 1 | > 4200 | – | –
CC1CCC(NN2CCN(c3nc(=O)c4cc(C(F)(F)F)cc([N+](=O)[O-])c4s3)CC2)CC1 (centres undefined) | > 64 | < 1 | > 4200 | – | –
CN(C1CCC(C)(C)CC1)N1CCN(c2nc(=O)c3cc(C(F)(F)F)cc([N+](=O)[O-])c3s2)CC1 | > 64 | < 1 | > 4200 | 6.1 | Activity [4]: Toxic; Tmax [5]: 30 min; Cmax [6]: 501 ng/mL; LD50 at 168 h [7]: > 500 mg/kg; MRT [8]: 3.91 h; AUC(0-inf) [9]: 1190 ng·h/mL; half-life [10]: 304 min; Activity [11]: Non-Toxic
CO[C@H]1/C=C/O[C@@]2(C)Oc3c(C)c(O)c4c(O)c(c(/C=N/N5CCN(C)CC5)c(O)c4c3C2=O)NC(=O)/C(C)=C\C=C\[C@H](C)[C@H](O)[C@@H](C)[C@@H](O)[C@@H](C)[C@H](OC(C)=O)[C@@H]1C [RIFAMPIN] | > 64 | 19 (≈ 0.0231 µM) | – | – | –
CN(C1CCCCC1)N1CCN(c2nc(=O)c3cc(C(F)(F)F)cc([N+](=O)[O-])c3s2)CC1(C)C | > 64 | 1.5 (≈ 0.003 µM) | > 4200 | 45.7 | –
CC1CN(c2nc(=O)c3cc(C(F)(F)F)cc([N+](=O)[O-])c3s2)CCN1N(C)C1CCC(C)(C)CC1 (centres undefined) | > 64 | < 1 | > 4200 | 35.5 | Activity [12]: Non-Toxic; Activity [4]: Toxic; LD50 at 168 h [7]: > 500 mg/kg; Activity [13]: Toxic; Activity [11]: Non-Toxic
CN(C1CCC(F)(F)CC1)N1CCN(c2nc(=O)c3cc(C(F)(F)F)cc([N+](=O)[O-])c3s2)CC1 | > 64 | < 1 | > 4200 | – | –
CC1CCC(C)C(N(C)N2CCN(c3nc(=O)c4cc(C(F)(F)F)cc([N+](=O)[O-])c4s3)CC2)C1 (centres undefined) | > 64 | < 1 | > 4200 | – | –
CC1(C)CCC(NN2CCN(c3nc(=O)c4cc(C(F)(F)F)cc([N+](=O)[O-])c4s3)CC2)CC1 | 58.1 (≈ 120 µM) | < 1 | > 4200 | 19.9 | Activity [4]: Toxic; Tmax [5]: 15 min; Cmax [6]: 755 ng/mL; LD50 at 168 h [7]: > 500 mg/kg; MRT [8]: 1.63 h; AUC(0-inf) [9]: 971 ng·h/mL; half-life [10]: 73.8 min; Activity [11]: Non-Toxic
O=c1nc(N2CCN(NC3CCC(F)(F)CC3)CC2)sc2c([N+](=O)[O-])cc(C(F)(F)F)cc12 | > 64 | 3.11 (≈ 0.0063 µM) | > 4200 | 46.8 | –
CN(C1C2CC3CC(C2)CC1C3)N1CCN(c2nc(=O)c3cc(C(F)(F)F)cc([N+](=O)[O-])c3s2)CC1 (centres undefined) | > 64 | 2.5 (≈ 0.00477 µM) | > 4200 | – | –
CC1CCCCC1NN1CCN(c2nc(=O)c3cc(C(F)(F)F)cc([N+](=O)[O-])c3s2)CC1 (centres undefined) | 48.7 (≈ 103 µM) | 1.4 (≈ 0.00297 µM) | > 4200 | – | –
O=c1nc(N2CCN(CC3CCCCC3)CC2)sc2c([N+](=O)[O-])cc(C(F)(F)F)cc12 [MACOZINONE] | > 64 | < 1 | – | – | –
CCON=C1CCC(N(C)N2CCN(c3nc(=O)c4cc(C(F)(F)F)cc([N+](=O)[O-])c4s3)CC2)CC1 (centres undefined) | 50.1 (≈ 94.8 µM) | 11.8 (≈ 0.0223 µM) | > 4200 | – | –
CN(CC1CCC(F)(F)CC1)N1CCN(c2nc(=O)c3cc(C(F)(F)F)cc([N+](=O)[O-])c3s2)CC1 | > 64 | < 1 | > 4200 | – | –
CN(C1CCC(C)(C)CC1)N1CCN(c2nc(=O)c3cc(C(F)(F)F)cc([N+](=O)[O-])c3s2)CC1(C)C | > 64 | < 1 | > 4200 | 18.1 | Activity [12]: Non-Toxic; Activity [4]: Toxic; LD50 at 168 h [7]: > 500 mg/kg; Activity [13]: Toxic; Activity [11]: Non-Toxic
CON=C1CCC(N(C)N2CCN(c3nc(=O)c4cc(C(F)(F)F)cc([N+](=O)[O-])c4s3)CC2(C)C)CC1 (centres undefined) | 4.91 (≈ 9.05 µM) | 63.1 (≈ 0.116 µM) | > 4200 | – | –
CC1CCCCC1N(C)N1CCN(c2nc(=O)c3cc(C(F)(F)F)cc([N+](=O)[O-])c3s2)CC1 (centres undefined) | > 64 | 1.35 (≈ 0.00278 µM) | > 4200 | – | –
NNC(=O)c1ccncc1 [ISONIAZID] | > 64 | 37.4 (≈ 0.273 µM) | – | – | –
CN(C1CCC2(CCCCC2)CC1)N1CCN(c2nc(=O)c3cc(C(F)(F)F)cc([N+](=O)[O-])c3s2)CC1 | 51.9 (≈ 96.2 µM) | < 1 | > 4200 | – | –
